Target: T1, FYN (Homo sapiens, UniProt P06241)
T1 construct: purchased Thermo Fisher Scientific (Life Technologies) SelectScreen
Test: SelectScreen Z'LYTE
Type: biochemical
Summary of the method: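 Percent values come from Thermo SelectScreen profiling of NU5455, combining activity and binding assays. CSF1R was run in Z'LYTE format at Km app ATP, and CAMK1 in Adapta format with ATP listed at 10.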

T1 sequence (P06241 whole entry): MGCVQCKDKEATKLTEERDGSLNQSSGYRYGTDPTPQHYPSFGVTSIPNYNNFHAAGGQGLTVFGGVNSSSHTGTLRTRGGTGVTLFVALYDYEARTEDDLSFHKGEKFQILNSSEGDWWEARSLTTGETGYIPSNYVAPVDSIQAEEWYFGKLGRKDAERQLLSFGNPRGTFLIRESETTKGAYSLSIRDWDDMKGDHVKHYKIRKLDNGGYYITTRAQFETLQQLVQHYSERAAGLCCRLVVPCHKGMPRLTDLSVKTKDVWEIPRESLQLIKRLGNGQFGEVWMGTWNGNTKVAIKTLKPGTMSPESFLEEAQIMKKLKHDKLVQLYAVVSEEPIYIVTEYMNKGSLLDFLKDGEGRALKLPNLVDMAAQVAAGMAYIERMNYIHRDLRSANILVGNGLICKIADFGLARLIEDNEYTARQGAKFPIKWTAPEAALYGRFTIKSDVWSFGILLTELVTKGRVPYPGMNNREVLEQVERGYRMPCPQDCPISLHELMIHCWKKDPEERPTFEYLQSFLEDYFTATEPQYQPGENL

## CN(C(=O)CN1CCOCC1)c1ccc2sc3c(-c4cccc5c(=O)cc(N6CC7CCC(C6)O7)oc45)cccc3c2c1 [NU5455]
  inhibition at 1 µM: 8.3%
